# Starred links: 1 amine or outer side, 2 acyl side, 3 side chain; linkers in the order of their positions; H or OH if unused. Positions of bridges follow the written chain, without caps; N, C: chain ends. Non-standard residues stand in square brackets, D forms with d. Residues, ends and D or L forms follow the SMILES beside them. Trp(7-aza) = N[C@@H](Cc1c[nH]c2ncccc12)C(=O)O; Trp(1-Me) = Cn1cc(C[C@H](N)C(=O)O)c2ccccc21; mXylylene = c1cc(C[*:1])cc(C[*:2])c1; pXylylene = c1cc(C[*:2])ccc1C[*:1]; Phg = N[C@H](C(=O)O)c1ccccc1; NMeS = CN[C@@H](CO)C(=O)O; hCys = N[C@@H](CCS)C(=O)O; Nle = CCCC[C@H](N)C(=O)O; Nva = CCC[C@H](N)C(=O)O
# Target: C5 (Homo sapiens, UniProt P01031)
# Sequence (P01031 19-1676): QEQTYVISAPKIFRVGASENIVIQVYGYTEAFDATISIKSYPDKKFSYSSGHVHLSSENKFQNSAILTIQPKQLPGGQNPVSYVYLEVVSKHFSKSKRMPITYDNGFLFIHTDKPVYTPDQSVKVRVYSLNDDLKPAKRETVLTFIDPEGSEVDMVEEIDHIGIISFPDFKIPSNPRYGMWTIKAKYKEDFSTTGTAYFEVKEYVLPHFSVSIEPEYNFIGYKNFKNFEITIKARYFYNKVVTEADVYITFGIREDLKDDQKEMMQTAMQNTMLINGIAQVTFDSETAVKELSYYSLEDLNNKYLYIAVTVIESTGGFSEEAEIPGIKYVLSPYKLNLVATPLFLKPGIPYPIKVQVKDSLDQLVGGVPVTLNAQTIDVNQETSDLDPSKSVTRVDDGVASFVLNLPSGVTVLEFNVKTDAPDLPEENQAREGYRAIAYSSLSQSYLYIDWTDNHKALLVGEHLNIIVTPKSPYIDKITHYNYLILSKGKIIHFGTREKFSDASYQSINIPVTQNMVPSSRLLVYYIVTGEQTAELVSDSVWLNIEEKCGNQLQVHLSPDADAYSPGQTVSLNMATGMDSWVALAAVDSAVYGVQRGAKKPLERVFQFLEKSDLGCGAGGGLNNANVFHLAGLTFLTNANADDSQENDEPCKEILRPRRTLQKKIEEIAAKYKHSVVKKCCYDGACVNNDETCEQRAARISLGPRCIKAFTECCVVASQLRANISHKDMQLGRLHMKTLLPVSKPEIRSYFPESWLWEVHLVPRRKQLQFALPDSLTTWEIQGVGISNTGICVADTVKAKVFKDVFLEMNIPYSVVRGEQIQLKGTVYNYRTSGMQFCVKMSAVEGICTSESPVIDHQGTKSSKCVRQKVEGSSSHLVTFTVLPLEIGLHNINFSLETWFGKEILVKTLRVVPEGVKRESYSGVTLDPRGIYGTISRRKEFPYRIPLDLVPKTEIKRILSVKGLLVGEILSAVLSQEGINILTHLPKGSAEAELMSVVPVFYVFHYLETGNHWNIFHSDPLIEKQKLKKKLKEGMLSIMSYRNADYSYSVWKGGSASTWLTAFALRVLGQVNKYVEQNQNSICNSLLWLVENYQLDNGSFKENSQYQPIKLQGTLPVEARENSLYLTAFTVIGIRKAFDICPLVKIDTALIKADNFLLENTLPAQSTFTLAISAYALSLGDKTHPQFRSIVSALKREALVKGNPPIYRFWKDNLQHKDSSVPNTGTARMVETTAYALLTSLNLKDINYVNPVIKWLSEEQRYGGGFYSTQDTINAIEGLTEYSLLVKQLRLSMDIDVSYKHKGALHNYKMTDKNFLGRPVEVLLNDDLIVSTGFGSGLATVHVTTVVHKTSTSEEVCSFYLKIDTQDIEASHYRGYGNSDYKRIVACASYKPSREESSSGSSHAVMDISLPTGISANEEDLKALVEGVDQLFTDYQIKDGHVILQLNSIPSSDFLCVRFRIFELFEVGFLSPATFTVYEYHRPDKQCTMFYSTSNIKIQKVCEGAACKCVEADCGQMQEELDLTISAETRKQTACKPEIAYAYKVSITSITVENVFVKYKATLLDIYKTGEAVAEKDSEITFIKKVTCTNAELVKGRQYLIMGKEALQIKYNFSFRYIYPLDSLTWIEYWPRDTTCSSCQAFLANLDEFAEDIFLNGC
# Assay: Human hemolysis assay (RBC lysis assay using complete human sera)
# Assay type: cell-based
# Set-up: with complete human sera (Complement Technology, Tyler Tex.) and polypeptides; tissue Complement Technology, Tyler Tex; host or cells: complete human serum
# Conditions: 7-azatryptophan variant polypeptides of R3002; inhibition of red blood cell lysis
row,Compound,IC50 [µM]
1,"CCC[C@H](NC(=O)[C@@H](NC(=O)[C@@H]1CCCN1C(=O)[C@H](Cc1ccc(O)cc1)NC(=O)[C@H](CCC(=O)O)NC(=O)[C@@H](Cc1c[nH]c2ccccc12)NC(=O)[C@H](Cc1ccc(O)cc1)NC(=O)[C@@H](NC(=O)[C@H](CC(N)=O)NC(=O)[C@H](CCC(=O)O)NC(=O)[C@H](Cc1ccc(O)cc1)NC(C)=O)C(C)(C)C)c1ccccc1)C(N)=O [Compound R3118, Ac-Y-E-N-Tbg-Y-(D-Trp)-E-Y-P-Phg-Nvl-NH2]",> 100
2,"CCC[C@H](NC(=O)[C@@H](NC(=O)[C@@H]1CCCN1C(=O)[C@H](Cc1ccc(O)cc1)NC(=O)[C@H](CCC(=O)O)NC(=O)[C@@H](Cc1c[nH]c2ccccc12)NC(=O)[C@H](Cc1ccc(O)cc1)NC(=O)[C@H](CC(N)=O)NC(=O)[C@H](CCC(=O)O)NC(=O)[C@H](Cc1ccc(O)cc1)NC(C)=O)c1ccccc1)C(N)=O [Compound R3119, Ac-Y-E-N-Y-(D-Trp)-E-Y-P-Phg-Nvl-NH2] (Ac-YENY[dW]EYP[Phg][Nva]-NH2)",> 100

# Same assay, conditions: 7-azatryptophan variant polypeptides of R3008; inhibition of red blood cell lysis
row,Compound,IC50 [µM]
1,"CCC[C@H](NC(=O)[C@@H]1CSCc2cccc(c2)CSC[C@H](NC(=O)[C@H](CCC)NC(C)=O)C(=O)N[C@@H](c2ccccc2)C(=O)N[C@@H]([C@@H](C)O)C(=O)N[C@@H](Cc2cn(C)c3ccccc23)C(=O)N[C@@H](CCC(=O)O)C(=O)N[C@@H](Cc2ccc(O)cc2)C(=O)N(C)[C@@H](CO)C(=O)N[C@@H](C)C(=O)N1)C(N)=O [Compound R3109, [mXylyl(2,10)]Ac-Nvl-C-Phg-T-(1-Me-W)-E-Y-(N-Me)S-A-C-Nvl-NH2] (Ac-[Nva]C[Phg]T[Trp(1-Me)]EY[NMeS]AC[Nva]-NH2; linker 2-10 via mXylylene)",> 100

# Same assay, conditions: inhibition of lysis of antibody-sensitized sheep erythrocytes, complete human sera
row,Compound,IC50 [µM]
1,"CCC[C@H](NC(=O)[C@@H]1CSCc2cccc(c2)CSC[C@H](NC(=O)[C@H](CCC)NC(C)=O)C(=O)N[C@@H](c2ccccc2)C(=O)N[C@@H]([C@@H](C)O)C(=O)N[C@@H](Cc2c[nH]c3ncccc23)C(=O)N[C@@H](CC(N)=O)C(=O)N[C@@H](Cc2ccc(O)cc2)C(=O)N(C)[C@@H](CO)C(=O)N[C@@H](C)C(=O)N1)C(N)=O [Compound R3099, [mXylyl(2,10)]Ac-Nvl-C-Phg-T-azaTrp-N-Y-(N-Me)S-A-C-Nvl-NH2] (Ac-[Nva]C[Phg]T[Trp(7-aza)]NY[NMeS]AC[Nva]-NH2; linker 2-10 via mXylylene)",> 100
2,"CCC[C@H](NC(=O)[C@@H]1CSCc2cccc(c2)CSC[C@H](NC(=O)[C@H](CCC)NC(C)=O)C(=O)N[C@@H](c2ccccc2)C(=O)N[C@@H]([C@@H](C)O)C(=O)N[C@@H](Cc2c[nH]c3ncccc23)C(=O)N[C@@H](CCC(=O)O)C(=O)N[C@@H](Cc2ccccc2)C(=O)N(C)[C@@H](CO)C(=O)N[C@@H](C)C(=O)N1)C(N)=O [Compound R3100, [mXylyl(2,10)]Ac-Nvl-C-Phg-T-azaTrp-E-F-(N-Me)S-A-C-Nvl-NH2] (Ac-[Nva]C[Phg]T[Trp(7-aza)]EF[NMeS]AC[Nva]-NH2; linker 2-10 via mXylylene)",0.626
3,"CCC[C@H](NC(=O)[C@@H]1CSCc2cccc(c2)CSC[C@H](NC(=O)[C@H](CCC)NC(C)=O)C(=O)N[C@@H](c2ccccc2)C(=O)N[C@@H]([C@@H](C)O)C(=O)N[C@@H](Cc2c[nH]c3ncccc23)C(=O)N[C@@H](CCC(=O)O)C(=O)N[C@@H](Cc2ccc(O)cc2)C(=O)N(C)[C@@H](CO)C(=O)N[C@@H](Cc2c[nH]cn2)C(=O)NCC(=O)N1)C(N)=O [Compound R3101, [mXylyl(2,10)]Ac-Nvl-C-Phg-T-azaTrp-E-Y-(N-Me)S-A-H-G-Nvl-NH2] (Ac-[Nva]C[Phg]T[Trp(7-aza)]EY[NMeS]HGC[Nva]-NH2; linker 2-11 via mXylylene)",> 100
4,"CCC[C@H](NC(=O)[C@@H]1CSCc2cccc(c2)CSC[C@H](NC(=O)[C@H](CCC)NC(C)=O)C(=O)N[C@@H](c2ccccc2)C(=O)N[C@@H]([C@@H](C)O)C(=O)N[C@@H](Cc2c[nH]c3ncccc23)C(=O)N[C@@H](CCC(=O)O)C(=O)N[C@@H](Cc2ccc(O)cc2)C(=O)N2CCC[C@H]2C(=O)N[C@@H](Cc2c[nH]cn2)C(=O)N1)C(N)=O [Compound R3102, [mXylyl(2,10)]Ac-Nvl-C-Phg-T-azaTrp-E-Y-P-H-C-Nvl-NH2] (Ac-[Nva]C[Phg]T[Trp(7-aza)]EYPHC[Nva]-NH2; linker 2-10 via mXylylene)",0.978
5,"CCC[C@H](NC(=O)[C@@H]1CSCc2cccc(c2)CSCC[C@H](NC(=O)[C@H](CCC)NC(C)=O)C(=O)N[C@@H](c2ccccc2)C(=O)N[C@@H]([C@@H](C)O)C(=O)N[C@@H](Cc2c[nH]c3ncccc23)C(=O)N[C@@H](CCC(=O)O)C(=O)N[C@@H](Cc2ccc(O)cc2)C(=O)N(C)[C@@H](CO)C(=O)N[C@@H](Cc2c[nH]cn2)C(=O)N1)C(N)=O [Compound R3103, [mXylyl(2,10)]Ac-Nvl-homoC-Phg-T-azaTrp-E-Y-(N-Me)S-H-C-Nvl-NH2] (Ac-[Nva][hCys][Phg]T[Trp(7-aza)]EY[NMeS]HC[Nva]-NH2; linker 2-10 via mXylylene)",> 25
6,"CCC[C@H](NC(=O)[C@@H]1CSCc2ccc(cc2)CSCC[C@H](NC(=O)[C@H](CCC)NC(C)=O)C(=O)N[C@@H](c2ccccc2)C(=O)N[C@@H]([C@@H](C)O)C(=O)N[C@@H](Cc2c[nH]c3ncccc23)C(=O)N[C@@H](CCC(=O)O)C(=O)N[C@@H](Cc2ccc(O)cc2)C(=O)N(C)[C@@H](CO)C(=O)N[C@@H](Cc2c[nH]cn2)C(=O)N1)C(N)=O [Compound R3104, [pXylyl(2,10)]Ac-Nvl-homoC-Phg-T-azaTrp-E-Y-(N-Me)S-H-C-Nvl-NH2] (Ac-[Nva][hCys][Phg]T[Trp(7-aza)]EY[NMeS]HC[Nva]-NH2; linker 2-10 via pXylylene)",> 2
7,"CCC[C@H](NC(=O)[C@@H]1CCSCc2cccc(c2)CSC[C@H](NC(=O)[C@H](CCC)NC(C)=O)C(=O)N[C@@H](c2ccccc2)C(=O)N[C@@H]([C@@H](C)O)C(=O)N[C@@H](Cc2c[nH]c3ncccc23)C(=O)N[C@@H](CCC(=O)O)C(=O)N[C@@H](Cc2ccc(O)cc2)C(=O)N(C)[C@@H](CO)C(=O)N[C@@H](Cc2c[nH]cn2)C(=O)N1)C(N)=O [Compound R3105, [mXylyl(2,10)]Ac-Nvl-C-Phg-T-azaTrp-E-Y-(N-Me)S-H-homoC-Nvl-NH2] (Ac-[Nva]C[Phg]T[Trp(7-aza)]EY[NMeS]H[hCys][Nva]-NH2; linker 2-10 via mXylylene)",> 5
8,"CCC[C@H](NC(=O)[C@@H]1CCSCc2ccc(cc2)CSC[C@H](NC(=O)[C@H](CCC)NC(C)=O)C(=O)N[C@@H](c2ccccc2)C(=O)N[C@@H]([C@@H](C)O)C(=O)N[C@@H](Cc2c[nH]c3ncccc23)C(=O)N[C@@H](CCC(=O)O)C(=O)N[C@@H](Cc2ccc(O)cc2)C(=O)N(C)[C@@H](CO)C(=O)N[C@@H](Cc2c[nH]cn2)C(=O)N1)C(N)=O [Compound R3106, [pXylyl(2,10)]Ac-Nvl-C-Phg-T-azaTrp-E-Y-(N-Me)S-H-homoC-Nvl-NH2] (Ac-[Nva]C[Phg]T[Trp(7-aza)]EY[NMeS]H[hCys][Nva]-NH2; linker 2-10 via pXylylene)",> 5
9,"CCC[C@H](NC(=O)[C@@H]1CCSCc2cccc(c2)CSCC[C@H](NC(=O)[C@H](CCC)NC(C)=O)C(=O)N[C@@H](c2ccccc2)C(=O)N[C@@H]([C@@H](C)O)C(=O)N[C@@H](Cc2c[nH]c3ncccc23)C(=O)N[C@@H](CCC(=O)O)C(=O)N[C@@H](Cc2ccc(O)cc2)C(=O)N(C)[C@@H](CO)C(=O)N[C@@H](Cc2c[nH]cn2)C(=O)N1)C(N)=O [Compound R3107, [mXylyl(2,10)]Ac-Nvl-homoC-Phg-T-azaTrp-E-Y-(N-Me)S-H-homoC-Nvl-NH2] (Ac-[Nva][hCys][Phg]T[Trp(7-aza)]EY[NMeS]H[hCys][Nva]-NH2; linker 2-10 via mXylylene)",> 75
10,"CCC[C@H](NC(=O)[C@@H]1CSCc2cccc(c2)CSC[C@H](NC(=O)[C@H](CCC)NC(C)=O)C(=O)N[C@@H](c2ccccc2)C(=O)N[C@@H]([C@@H](C)O)C(=O)N[C@@H](Cc2cn(C)c3ccccc23)C(=O)N[C@@H](CCC(=O)O)C(=O)N[C@@H](Cc2ccc(O)cc2)C(=O)N(C)[C@@H](CO)C(=O)N[C@@H](C)C(=O)N1)C(N)=O [Compound R3109, [mXylyl(2,10)]Ac-Nvl-C-Phg-T-(1-Me-W)-E-Y-(N-Me)S-A-C-Nvl-NH2] (Ac-[Nva]C[Phg]T[Trp(1-Me)]EY[NMeS]AC[Nva]-NH2; linker 2-10 via mXylylene)",> 100
11,"CCC[C@H](NC(=O)[C@@H](NC(=O)[C@@H]1CCCN1C(=O)[C@H](Cc1ccc(O)cc1)NC(=O)[C@H](CCC(=O)O)NC(=O)[C@H](Cc1cn(C)c2ccccc12)NC(=O)[C@H](Cc1ccc(O)cc1)NC(=O)[C@@H](NC(=O)[C@H](CC(N)=O)NC(=O)[C@H](CCC(=O)O)NC(=O)[C@H](Cc1ccc(O)cc1)NC(C)=O)C(C)(C)C)c1ccccc1)C(N)=O [Compound R3110, Ac-Y-E-N-Tbg-Y-(1-Me)W-E-Y-P-Phg-Nvl-NH2]",2.94
12,"CCC[C@H](NC(=O)[C@@H]1CSCc2cccc(c2)CSC[C@H](NC(=O)[C@@H](NC(=O)[C@@H](NC(=O)[C@H](CCC)NC(C)=O)[C@@H](C)O)c2ccccc2)C(=O)N[C@@H](Cc2c[nH]c3ncccc23)C(=O)N[C@@H](CCC(=O)O)C(=O)N[C@@H](Cc2ccc(O)cc2)C(=O)N(C)[C@@H](CO)C(=O)N[C@@H](C)C(=O)N1)C(N)=O [Compound R3111, [mXylyl(4,10)]Ac-Nvl-T-Phg-C-azaTrp-E-Y-(N-Me)S-A-C-Nvl-NH2] (Ac-[Nva]T[Phg]C[Trp(7-aza)]EY[NMeS]AC[Nva]-NH2; linker 4-10 via mXylylene)",> 5
13,"CCCC[C@H](NC(C)=O)C(=O)N[C@H]1CSCc2cccc(c2)CSC[C@@H](C(=O)N[C@@H](CCC)C(N)=O)NC(=O)[C@H](Cc2c[nH]cn2)NC(=O)[C@H](CO)N(C)C(=O)[C@H](Cc2ccc(O)cc2)NC(=O)[C@H](CCC(=O)O)NC(=O)[C@H](Cc2c[nH]c3ncccc23)NC(=O)[C@H]([C@@H](C)O)NC(=O)[C@H](c2ccccc2)NC1=O [Compound R3112, [mXyly1(2,10)]Ac-Nle-C-Phg-T-azaTrp-E-Y-(N-Me)S-H-C-Nvl-NH2] (Ac-[Nle]C[Phg]T[Trp(7-aza)]EY[NMeS]HC[Nva]-NH2; linker 2-10 via mXylylene)",> 5
14,"CCC[C@H](NC(=O)[C@@H]1CSCc2cccc(c2)CSC[C@H](NC(=O)[C@H](CCC)NC(=O)[C@H](Cc2ccc(O)cc2)NC(C)=O)C(=O)N[C@@H](c2ccccc2)C(=O)N[C@@H]([C@@H](C)O)C(=O)N[C@@H](Cc2c[nH]c3ncccc23)C(=O)N[C@@H](CCC(=O)O)C(=O)N[C@@H](Cc2ccc(O)cc2)C(=O)N(C)[C@@H](CO)C(=O)N[C@@H](Cc2c[nH]cn2)C(=O)N1)C(N)=O [Compound R3113, [mXylyl(3,11)]Ac-Y-Nvl-C-Phg-T-azaTrp-E-Y-(N-Me)S-H-C-Nvl-NH2] (Ac-Y[Nva]C[Phg]T[Trp(7-aza)]EY[NMeS]HC[Nva]-NH2; linker 3-11 via mXylylene)",> 5
15,"CCC[C@H](NC(=O)[C@@H](NC(=O)[C@@H]1CCCN1C(=O)[C@H](Cc1ccc(O)cc1)NC(=O)[C@H](CCC(=O)O)NC(=O)[C@@H](Cc1c[nH]c2ccccc12)NC(=O)[C@H](Cc1ccc(O)cc1)NC(=O)[C@@H](NC(=O)[C@H](CC(N)=O)NC(=O)[C@H](CCC(=O)O)NC(=O)[C@H](Cc1ccc(O)cc1)NC(C)=O)C(C)(C)C)c1ccccc1)C(N)=O [Compound R3118, Ac-Y-E-N-Tbg-Y-(D-Trp)-E-Y-P-Phg-Nvl-NH2]",> 100
16,"CCC[C@H](NC(=O)[C@@H](NC(=O)[C@@H]1CCCN1C(=O)[C@H](Cc1ccc(O)cc1)NC(=O)[C@H](CCC(=O)O)NC(=O)[C@@H](Cc1c[nH]c2ccccc12)NC(=O)[C@H](Cc1ccc(O)cc1)NC(=O)[C@H](CC(N)=O)NC(=O)[C@H](CCC(=O)O)NC(=O)[C@H](Cc1ccc(O)cc1)NC(C)=O)c1ccccc1)C(N)=O [Compound R3119, Ac-Y-E-N-Y-(D-Trp)-E-Y-P-Phg-Nvl-NH2] (Ac-YENY[dW]EYP[Phg][Nva]-NH2)",> 100

# Source: patent US10208089B2, “Modulation of complement activity” (priority 2014, dated 2019)
